By IC50 is commonly meant the concentration needed to halve the response being measured.

Consider 2 compounds from patent US12059413B2, “Methods of inhibiting viruses using compositions targeting TSG101-ubiquitin interaction” (The Research Foundation for the State University of New York, priority 2016, dated 2024).

One test addresses T1, Tsg101 (Homo sapiens, UniProt Q99816).
T1 sequence (Q99816 2-145 limits assumed): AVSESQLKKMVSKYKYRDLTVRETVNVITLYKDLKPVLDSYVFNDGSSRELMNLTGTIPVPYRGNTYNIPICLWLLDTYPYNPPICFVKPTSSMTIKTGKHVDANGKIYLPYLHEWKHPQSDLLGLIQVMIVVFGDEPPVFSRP
As to the kind of experiment: NWU screening / in vitro binding assay. The note with it: Esomeprazole and tenatoprazole compared. The source says:
Pantoprazole, Lansoprazole/Dexlansoprazole (dexlansoprazole is the active enantiomer of the racemic lansoprazole), and Rabeprazole were in the NWU screen but were not considered hits.

Test [1] has as its system Tsg101 midbody localization. Kind of test: Tsg101 midbody localization in dividing cells. The format is cell-based. Particulars: N16 50 uM; 200 cells sampled; 12% in absence. As for the experimental part:
(§1) FIG. 20A-C. N16 inhibition is virus-specific. A) N16 IC50 for Hela and 293T cells. […] Values were calculated by measuring metabolic activity (WST-1 Assay, Roche Applied Science) after cells were grown for 24 hr in N16. Data points represent the mean of 2 assays, 3 time points each for each cell line. […] Values in the absence or presence of N16 (50 uM) were 12% and 13%, respectively). C) N16 effect on EGF-stimulated EFGR degradation. Cells maintained for 24 hr in media containing DMSO alone or DMSO and N16 were stimulated with EGF ligand for a 90 min period and then assessed for EGFR steady-state level by Western analysis. EGFR levels for unstimulated and stimulated sample pairs are shown. A) n=2; B) n=2; C) n=2.
We investigated the specificity of the inhibitory effect. F15 and N16 impaired Tsg101-co-localization with Gag on the plasma membrane (c.f, FIG. 19) and reduced release of the VLPs assembled by Gag (c.f, FIG. 15). […] Cell metabolic activity was not affected after exposure to N16 for 24 hr; it decreased by less than 10% after exposure to N16 for 48 hr (not shown). Tsg101 localization to the midbody of dividing cells requires its recruitment to that location by centrosomal protein of 55k (CEP55) which binds a site in the Tsg101 Pro-rich domain (aa 154-166) (Lee, H. H., et al. (2008)). […]

The next test has as its system Hela cells. As to the kind of experiment: Metabolic activity, WST-1 assay, Hela cells. The format is cell-based. Particulars: Homo sapiens, 24 hr in N16, WST-1, read-out: IC50 (95% confidence levels), metabolic activity. Here is the method:
as §1
(§2) Cells were grown in 96-well trays for 24 hr with increasing levels of drug, metabolic activity was measured using WST-1colorimetric assay (Roche), and IC50 values were calculated (Prism 6, Graph Pad Software Inc.).

The test system of another test is 293T cells. Kind of test: Metabolic activity, WST-1 assay, 293T cells. Particulars: Homo sapiens, HEK-293T; 293T, 24 hr in N16, WST-1; read-out: IC50 (95% confidence levels), metabolic activity. The format is cell-based. Here is the method: as §1
FIG. 27A-C. Effect of N-Acetyl Cysteine (NAC) on N16-mediated inhibition of VLP production and intracellular Gag accumulation. […] A concentration of 3 mM NAC was therefore used to test the effect of the antioxidative reagent on the N16 inhibitory effect. N16 (0, 12, 25, 50, 75, and 100 uM) was added 8.5 hr prior to transfection with pNL4-3ΔEnv. Cells were harvested 16 hr later. […] C) Quantitative analysis. n=2.
as §2
For orientation: Tetrazolium dyes change colour on reduction, which living cells bring about.

Turning to `COc1ccc2nc([S@@+]([O-])Cc3ncc(C)c(OC)c3C)[nH]c2c1` [F15, esomeprazole], the “binding in the in vitro binding assay” value at Tsg101 was “comparable binding”.
For `COc1ccc2[nH]c([S+]([O-])Cc3ncc(C)c(OC)c3C)nc2n1` (stereo not shown) [N16, tenatoprazole], the “frequency of cells exhibiting Tsg101 midbody localization” value in test [1] stood at 13%. The IC50 in the test with Hela cells is 156 to 205 µM; in the test with 293T cells, 99.8 to 139 µM.
